Read-outs that look alike come from different tables or passages of the source.
What was measured:
Human MSCs = test: Alcian Blue, Safranin O, and Type II collagen staining; format: cell-based; details: 14 or 21 days; compared to control
Description: Human MSCs were plated in 96-well plates in chondrogenic induction medium (Lonza; DMEM, dexamethasone, ascorbate, insulin-transferrin-selenium [ITS supplement], gentamycin-amphotericin [GA-1000], sodium pyruvate, proline and L-glutamine) and treated with the compound of Formula (I) in DMSO or TGFβ3 (20 μg/mL) as a positive control. Cells were incubated at 37° C., 5% CO2 for either 14 or 21 days, with media changes every 5 days. The cells were fixed using 4% formaldehyde (Electron Microscopy Sciences). For Alcian Blue staining, cells were incubated with 10 mg/mL Alcian Blue (Sigma-Aldrich) in 3% acetic acid (Sigma-Aldrich), pH 2.5 for 30 minutes, washed with PBS, and imaged using a light microscope (Life Technologies) at 10× magnification. For Safranin O staining, cells were incubated with 0.1% Safranin O (Sigma-Aldrich) in distilled water for 5 minutes, washed with PBS and imaged using a light microscope (Life Technologies) at 10× magnification. For Type II collagen staining, cells were incubated with primary antibody in 3% BSA, 0.3% Triton X-100 in PBS with overnight incubation at […]. Cells were then washed and incubated with fluorophore-linked secondary antibody and DAPI (Life Technologies) for 1 hr at room temperature. Cells were washed and imaged using EVOS FL Microscope (Life Technologies).

[1] = Rat pharmacokinetics after IA injection (plasma, knee joint); format: in vivo, Sprague Dawley rats; details: for concentration at 30 day / concentration at 90 day / concentration at 180 day: Sprague Dawley; for concentration at 30 day / concentration at 90 day / concentration at 180 day / Formula (I) concentration, Bone / Formula (I) concentration, Cartilage / Formula (I) concentration, Plasma: rats, single IA; for Formula (I) concentration, Plasma: QL = 5 ng/mL
Description: In rats and dogs, the pharmacokinetic profile, safety profile, tissue distribution and cartilage regeneration following a single intra-articular (IA) injection of the compound of Formula (I) in the plasma and the knee joint (cartilage and bone) was determined. The compound of Formula (I) (Form 1) was formulated as a suspension composition in 0.5% CMC/0.05% Polysorbate 80 in PBS.
The pharmacokinetics of the compound of Formula (I) in rats was studied. Three Sprague Dawley rats were each injected with a single intra-articular (IA) injection (one IA injection per knee) of a suspension composition of the compound of Formula (I) (Form 1) at 0.3, 1, 3 and 9 μg/knee. Plasma was collected beginning at 15 minutes post-dose on Day 1 and the knee joint was collected at Days 30, 90, and 180 post-IA administration. The bone and cartilage tissues from the knee joint were segregated and concentrations analyzed. The compound was retained in the knee joint above the target concentration level (˜30 nM, the intended clinical therapeutic dose) for greater than 180 days and was undetectable in the plasma at all time points.

CC(C)CC(=O)Nc1cncc(-c2ccc3[nH]nc(-c4nc5c(-c6cccc(F)c6)cncc5[nH]4)c3c2)c1 [compound of Formula (I)]
chondrogenesis (Alcian Blue, Safranin O, Type II collagen staining) (Human MSCs): increased amount of chondrogenesis
concentration at 30 day ([1]; rat, bone, other: intra-articular injection, 1 μg/knee, Day 30, read-out: Formula (I) concentration, Bone): 196 ng/g
concentration at 90 day ([1]; rat, bone, other: intra-articular injection, 1 μg/knee, Day 90, read-out: Formula (I) concentration, Bone): 44.4 ng/g
concentration at 180 day ([1]; rat, bone, other: intra-articular injection, 1 μg/knee, Day 180, read-out: Formula (I) concentration, Bone): 46.4 ng/g
concentration at 30 day ([1]; rat, bone, other: intra-articular injection, 3 μg/knee, Day 30, read-out: Formula (I) concentration, Bone): 738 ng/g
concentration at 90 day ([1]; rat, bone, other: intra-articular injection, 3 μg/knee, Day 90, read-out: Formula (I) concentration, Bone): 166 ng/g
concentration at 180 day ([1]; rat, bone, other: intra-articular injection, 3 μg/knee, Day 180, read-out: Formula (I) concentration, Bone): 15 ng/g
concentration at 30 day ([1]; rat, bone, other: intra-articular injection, 9 μg/knee, Day 30, read-out: Formula (I) concentration, Bone): 3290 ng/g
concentration at 180 day ([1]; rat, bone, other: intra-articular injection, 9 μg/knee, Day 180, read-out: Formula (I) concentration, Bone): 67 ng/g
concentration at 30 day ([1]; rat, bone, other: intra-articular, 0.3 μg/knee, Day 30, read-out: Formula (I) concentration, Bone): 25.8 ng/g
concentration at 90 day ([1]; rat, bone, other: intra-articular, 0.3 μg/knee, Day 90, read-out: Formula (I) concentration, Bone): 6.56 ng/g
concentration at 180 day ([1]; rat, bone, other: intra-articular, 0.3 μg/knee, Day 180, read-out: Formula (I) concentration, Bone): 19 ng/g
concentration at 30 day ([1]; rat, cartilage, other: intra-articular injection, 0.3 μg/knee, Day 30, read-out: Formula (I) concentration, Cartilage): 263 ng/g
concentration at 90 day ([1]; rat, cartilage, other: intra-articular injection, 0.3 μg/knee, Day 90, read-out: Formula (I) concentration, Cartilage): 78 ng/g
concentration at 180 day ([1]; rat, cartilage, other: intra-articular injection, 0.3 μg/knee, Day 180, read-out: Formula (I) concentration, Cartilage): 69.6 ng/g
concentration at 30 day ([1]; rat, cartilage, other: intra-articular injection, 3 μg/knee, Day 30, read-out: Formula (I) concentration, Cartilage): 2570 ng/g
concentration at 90 day ([1]; rat, cartilage, other: intra-articular injection, 3 μg/knee, Day 90, read-out: Formula (I) concentration, Cartilage): 645 ng/g
concentration at 180 day ([1]; rat, cartilage, other: intra-articular injection, 3 μg/knee, Day 180, read-out: Formula (I) concentration, Cartilage): 717 ng/g
concentration at 30 day ([1]; rat, cartilage, other: intra-articular injection, 9 μg/knee, Day 30, read-out: Formula (I) concentration, Cartilage): 3560 ng/g
concentration at 180 day ([1]; rat, cartilage, other: intra-articular injection, 9 μg/knee, Day 180, read-out: Formula (I) concentration, Cartilage): 224 ng/g
concentration at 30 day ([1]; rat, cartilage, other: intra-articular, 1 μg/knee, Day 30, read-out: Formula (I) concentration, Cartilage): 39 ng/g
concentration at 90 day ([1]; rat, cartilage, other: intra-articular, 1 μg/knee, Day 90, read-out: Formula (I) concentration, Cartilage): 243 ng/g
concentration at 180 day ([1]; rat, cartilage, other: intra-articular, 1 μg/knee, Day 180, read-out: Formula (I) concentration, Cartilage): 201 ng/g
plasma level ([1]; rat, all time points): undetectable
time retained in the knee joint above the target concentration level (˜30 nM) ([1]; rat, single IA 0.3, 1, 3 and 9 μg/knee): greater than 180 days
Formula (I) concentration, Bone ([1]; 0.3 μg/knee, Day 30): [51 nM]
Formula (I) concentration, Cartilage ([1]; 0.3 μg/knee, Day 30): [521 nM]
Formula (I) concentration, Plasma ([1]; 0.3 μg/knee, Day 30): BQL
Formula (I) concentration, Bone ([1]; 0.3 μg/knee, Day 90): [13 nM]
Formula (I) concentration, Cartilage ([1]; 0.3 μg/knee, Day 90): [154 nM]
Formula (I) concentration, Plasma ([1]; 0.3 μg/knee, Day 90): BQL
Formula (I) concentration, Bone ([1]; 0.3 μg/knee, Day 180): [38 nM]
Formula (I) concentration, Cartilage ([1]; 0.3 μg/knee, Day 180): [138 nM]
Formula (I) concentration, Plasma ([1]; 0.3 μg/knee, Day 180): BQL
Formula (I) concentration, Bone ([1]; 1 μg/knee, Day 30): [388 nM]
Formula (I) concentration, Cartilage ([1]; 1 μg/knee, Day 30): [774 nM]
Formula (I) concentration, Plasma ([1]; 1 μg/knee, Day 30): BQL
Formula (I) concentration, Bone ([1]; 1 μg/knee, Day 90): [88 nM]
Formula (I) concentration, Cartilage ([1]; 1 μg/knee, Day 90): [481 nM]
Formula (I) concentration, Plasma ([1]; 1 μg/knee, Day 90): BQL
Formula (I) concentration, Bone ([1]; 1 μg/knee, Day 180): [92 nM]
Formula (I) concentration, Cartilage ([1]; 1 μg/knee, Day 180): [398 nM]
Formula (I) concentration, Plasma ([1]; 1 μg/knee, Day 180): BQL
Formula (I) concentration, Bone ([1]; 3 μg/knee, Day 30): [1461 nM]
Formula (I) concentration, Cartilage ([1]; 3 μg/knee, Day 30): [5097 nM]
Formula (I) concentration, Plasma ([1]; 3 μg/knee, Day 30): BQL
Formula (I) concentration, Bone ([1]; 3 μg/knee, Day 90): [329 nM]
Formula (I) concentration, Cartilage ([1]; 3 μg/knee, Day 90): [1277 nM]
Formula (I) concentration, Plasma ([1]; 3 μg/knee, Day 90): BQL
Formula (I) concentration, Bone ([1]; 3 μg/knee, Day 180): [313 nM]
Formula (I) concentration, Cartilage ([1]; 3 μg/knee, Day 180): [1420 nM]
Formula (I) concentration, Plasma ([1]; 3 μg/knee, Day 180): BQL
Formula (I) concentration, Bone ([1]; 9 μg/knee, Day 30): [6520 nM]
Formula (I) concentration, Cartilage ([1]; 9 μg/knee, Day 30): [7055 nM]
Formula (I) concentration, Plasma ([1]; 9 μg/knee, Day 30): BQL
Formula (I) concentration, Plasma ([1]; 9 μg/knee, Day 90): BQL
Formula (I) concentration, Bone ([1]; 9 μg/knee, Day 180): [1335 nM]
Formula (I) concentration, Cartilage ([1]; 9 μg/knee, Day 180): [4437 nM]
Formula (I) concentration, Plasma ([1]; 9 μg/knee, Day 180): BQL
